Here are results for four molecules from paper PMC8494734 (Scientific Reports, 2021).

Series [1] concerns the target T1, recombinant NirK protein (MRA2164) (Mycobacterium tuberculosis, UniProt A5U4H6).
T1 construct: gene yfiH
Nature of the series: biochemical. Particulars: read-out: % inhibition at 5 mM.

Series [2] has as its target T1, recombinant NirK protein (MRA2164).
The subject of the next series is O=NO. In words: purified protein. To be noted: pH 7.0; 37.0 °C.

T1 sequence (A5U4H6 entry or part of it): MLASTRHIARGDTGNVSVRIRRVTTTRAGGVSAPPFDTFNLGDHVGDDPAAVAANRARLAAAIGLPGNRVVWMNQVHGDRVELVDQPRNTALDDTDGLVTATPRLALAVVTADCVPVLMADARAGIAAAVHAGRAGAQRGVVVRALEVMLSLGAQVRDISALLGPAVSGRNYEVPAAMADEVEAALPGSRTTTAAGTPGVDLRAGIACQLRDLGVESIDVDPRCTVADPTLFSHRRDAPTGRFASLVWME

Consider `NC(=O)C1=CN([C@@H]2O[C@H](COP(=O)(O)OP(=O)(O)OC[C@H]3O[C@@H](n4cnc5c(N)ncnc54)[C@H](O)[C@@H]3O)[C@@H](O)[C@H]2O)C=CC1` [NADH], for which the inhibition at 5000 µM in series [1] was determined as 92.3%.

Take `[N-]=[N+]=[N-]` [azide]: the “% inhibition at 5 mM” value in series [2] is given as 95.16%. Same read-out and setting: with `O=[N+]([O-])O` [nitrate] the figure was 47.40%. In the case of “recombinant NirK protein (MRA2164) (Mycobacterium tuberculosis H37Ra)”, the Km with O=NO came to 17.16 mM.
